System: southern root-knot nematode (Meloidgyne incognita)
Experiment: Test on southern root-knot nematode (soil treatment, tomato seedling, root knot index)
Assay type: in vivo
Parameters: key: 0: No knot was formed; 1: Knots were formed to a slight degree; 2: Knots were formed to a moderate degree; 3: Knots were formed to a heavy degree; 4: Knots were formed to the heaviest degree
Conditions: 7 ml of 1600 ppm chemical solution mixed into 300 ml contaminated soil; tomato seedling in 2-leaf stage; three to four weeks after transplantation
Description: TEST EXAMPLE 1 Test on Southern Root-knot Nematode (Meloidgyne incognita) To 300 ml of the soil contaminated by southern root-knot nematode, 7 ml of a chemical solution having the concentration of the compound of the present invention adjusted to be 1600 ppm, was poured, followed by mixing so that the compound was uniformly dispersed. The treated soil was put into a pot (diameter: 9 cm, height: 8 cm), and then a tomato seedling in 2-leaf stage was transplanted and placed in a greenhouse. After three to four weeks from the transplantation of the tomato, the root knot index was determined based on the following standards. [table]

SMILES | root knot index
CC(C)(NC(=O)c1ccccc1F)C(=O)c1ccc(OC(F)(F)C(F)F)cc1 [1-175] | 1
CC(C)(NC(=O)c1c(F)cccc1F)C(=O)c1ccc(Oc2ccc(C(F)(F)F)cn2)cc1 [1-211] | 1
CC(C)(NC(=O)c1c(F)cccc1F)C(=O)c1ccc(OC(F)(F)C(F)F)cc1 [1-177] | 1
CC(C)(NC(=O)c1ccccc1Cl)C(=O)c1ccc(F)c(F)c1 [1-131] | 1
CSc1ccc(C(=O)C(C)(C)NC(=O)c2c(F)cccc2F)cc1 [1-212] | 1
CC(C)(NC(=O)c1cccc(F)c1F)C(=O)c1ccc(Cl)cc1 [1-139] | 1
CC(C)(NC(=O)c1c(F)cccc1Cl)C(=O)c1ccc(Cl)cc1 [1-142] | 1
CC(C)(NC(=O)c1ccccc1F)C(=O)c1ccc(C(F)(F)F)cc1 [1-167] | 1
CC(C)(NC(=O)c1ccccc1Cl)C(=O)c1ccc(Br)cc1 [1-155] | 1
CC(C)(NC(=O)c1ccccc1F)C(=O)c1ccc(OC(F)F)cc1 [1-171] | 1
CC(C)(NC(=O)c1ccccc1F)C(=O)c1ccc(I)cc1 [1-160] | 1
COc1ccc(C(=O)C(C)(C)NC(=O)c2c(F)cccc2F)cc1 [1-168] | 1
CC(C)(NC(=O)c1c(F)cccc1F)C(=O)c1ccc(OCC(F)(F)C(F)(F)F)cc1 [1-180] | 1
CC(C)(NC(=O)c1c(F)cccc1F)C(=O)c1cccc(Cl)c1 [1-135] | 1
CC(C)(NC(=O)c1c(F)cccc1F)C(=O)c1ccc(Cl)cc1Cl [1-143] | 1
CCc1ccc(C(=O)C(C)(C)NC(=O)c2c(F)cccc2F)cc1 [1-164] | 1
CC(C)(NC(=O)c1ccccc1F)C(=O)c1ccc(Cl)c(Cl)c1 [1-77] | 1
CC(C)(NC(=O)c1c(F)cccc1F)C(=O)c1ccc(S(C)(=O)=O)cc1 [1-213] | 1
Cc1ccc(C(=O)C(C)(C)NC(=O)c2c(F)cccc2F)cc1 [1-163] | 1
CC(C)(NC(=O)c1ccccc1F)C(=O)c1ccc(OCC(F)(F)C(F)(F)F)cc1 [1-179] | 1
CC(C)(NC(=O)c1c(F)cccc1F)C(=O)c1ccc(OC(F)F)cc1 [1-172] | 1
Cc1ccccc1C(=O)NC(C)(C)C(=O)c1ccc(Cl)cc1 [1-65] | 1
CC(C)(NC(=O)c1ccc(F)cc1F)C(=O)c1ccc(Cl)cc1 [1-140] | 1

SMILES | root knot index
CC(C)(NC(=O)c1ccccc1)C(=O)c1ccc(Cl)cc1 [1-49] | 1
CC(C)(NC(=O)c1ccccc1[N+](=O)[O-])C(=O)c1ccccc1 [1-38] | 1
CC(C)(NC(=O)c1ccccc1C(F)(F)F)C(=O)c1ccc(Cl)cc1 [1-70] | 1
CC(C)(NC(=O)c1c(F)cccc1F)C(=O)c1ccc(OCC(F)(F)F)cc1 [1-174] | 1
CC(C)(NC(=O)c1ccccc1F)C(=O)c1ccc(Br)cc1 [1-158] | 1
CC(C)(NC(=O)c1ccccc1Cl)C(=O)c1ccc(Cl)cc1 [Compound No. 1-54, 2-chloro-N-[(4′-chloro-1,1-dimethyl)phenacyl]benzamide] | 1
CC(C)(NC(=O)c1c(F)cccc1F)C(=O)c1ccc(F)cc1 [1-128] | 1
CC(C)(NC(=O)c1ccccc1C(F)(F)F)C(=O)c1ccc(F)c(F)c1 [1-132] | 1
CC(C)(NC(=O)c1ccccc1Cl)C(=O)c1ccc(OC(F)F)cc1 [1-95] | 1
CC(C)(NC(=O)c1ccccc1C(F)(F)F)C(=O)c1ccccc1 [1-24] | 1
CC(C)(NC(=O)c1ccccc1F)C(=O)c1ccc(OCC(F)(F)F)cc1 [1-173] | 1
CC(C)(NC(=O)c1c(F)cccc1F)C(=O)c1ccc(Cl)c(Cl)c1 [1-147] | 1
CCc1ccc(C(=O)C(C)(C)NC(=O)c2cc(Cl)cc(Cl)c2)cc1 [Compound No. 1-84, 3,5-dichloro-N-[(4′-ethyl-1,1-dimethyl)phenacyl]benzamide] | 1
CC(C)(NC(=O)c1c(F)cccc1F)C(=O)c1ccc(F)c(F)c1 [1-133] | 1
CN(C(=O)c1ccccc1C(F)(F)F)C(C)(C)C(=O)c1ccccc1 [Compound No. 1-27, N-methyl-N-[(1,1-dimethyl)phenacyl]-2-trifluoromethylbenzamide] | 1
Cc1ccccc1C(=O)NC(C)(C)C(=O)c1ccccc1 [1-18] | 1
CC(C)(NC(=O)c1ccccc1Cl)C(=O)c1ccc(OC(F)(F)C(F)F)cc1 [1-176] | 1
CC(C)(NC(=O)c1ccccc1Br)C(=O)c1ccc(Cl)cc1 [1-64] | 1
CCOc1ccc(C(=O)C(C)(C)NC(=O)c2c(F)cccc2F)cc1 [1-169] | 1
CC(C)(NC(=O)c1c(F)cccc1F)C(=O)c1ccc(I)cc1 [1-162] | 1
COc1ccc(C(=O)C(C)(C)NC(=O)c2ccccc2Cl)cc1 [1-93] | 1
CC(C)(NC(=O)c1cccc(F)c1F)C(=O)c1ccc(F)cc1 [1-127] | 1
CC(C)(NC(=O)c1ccccc1Br)C(=O)c1ccccc1 [1-17] | 1

SMILES | root knot index
CC(C)(NC(=O)c1ccccc1C(F)(F)F)C(=O)c1ccc(OC(F)(F)C(F)F)cc1 [1-178] | 1
CC(C)(NC(=O)c1ccccc1F)C(=O)c1ccccc1 [1-1] | 1
CC(C)(NC(=O)c1ccc(F)cc1Cl)C(=O)c1ccc(Cl)cc1 [1-138] | 1
CC(C)(NC(=O)c1cc(F)ccc1F)C(=O)c1ccc(Cl)cc1 [1-141] | 1
CCc1ccc(C(=O)C(C)(C)NC(=O)c2ccccc2Cl)cc1 [1-83] | 1
CC(C)(NC(=O)c1ccccc1[N+](=O)[O-])C(=O)c1ccc(Cl)cc1 [1-136] | 1
CC(C)(NC(=O)c1c(F)cccc1F)C(=O)c1ccccc1Cl [1-134] | 1
CC(C)(NC(=O)c1ccc(F)cc1F)C(=O)c1ccccc1 [1-125] | 1
CCC(C)(NC(=O)c1ccccc1F)C(=O)c1ccc(Cl)cc1 (racemic) [1-51] | 1
CC(C)(NC(=O)c1ccc(C(F)(F)F)cc1)C(=O)c1ccccc1 [1-28] | 1
CC(C)(NC(=O)c1cccc(F)c1F)C(=O)c1ccc(Br)cc1 [1-159] | 1
CC(C)(NC(=O)c1ccccc1F)C(=O)c1ccc(F)c(F)c1 [1-130] | 1
CC(C)(NC(=O)c1c(F)cccc1F)C(=O)c1ccc(C(F)(F)F)cc1 [1-166] | 1
CC(C)(NC(=O)c1ccccc1C(F)(F)F)C(=O)c1ccc(I)cc1 [1-161] | 1
CC(C)(NC(=O)c1ccccc1Cl)C(=O)c1ccccc1 [Compound No. 1-5] | 1
CSc1ccccc1C(=O)NC(C)(C)C(=O)c1ccccc1 [1-31] | 1
CC(C)(NC(=O)c1c(F)cccc1F)C(=O)c1ccc(Br)cc1 [1-157] | 1
CCC(C)(NC(=O)c1c(F)cccc1F)C(=O)c1ccc(Cl)cc1 (racemic) [1-151] | 1
CC(C)(NC(=O)c1ccccc1F)C(=O)c1ccc(Cl)cc1 [1-50] | 1
CC(C)(NC(=O)c1c(F)cccc1F)C(=O)c1cccc(F)c1 [1-126] | 1
Cc1ccc(C(=O)NC(C)(C)C(=O)c2ccccc2)cc1 [1-19] | 1
CC(C)(NC(=O)c1cccnc1Cl)C(=O)c1ccccc1 [2-2] | 1
CC(C)(NC(=O)c1c(F)cccc1F)C(=O)c1ccccc1 [1-4] | 1

Source: patent US7439366B2, “Phenacylamine derivatives, process for their production and pesticides containing them” (Ishihara Sangyo Kaisha Ltd., priority 2000, dated 2008)
